Measurements as given in publication PMC6543810, “Computational Identification of Novel Kir6 Channel Inhibitors” (Frontiers in Pharmacology, 2019).
Like-named read-outs stand apart in the source and are kept apart here.

Legend:
Kir6.2 C166S/SUR2A = target: T1, Kir6.2 C166S/SUR2A (Rattus norvegicus, UniProt P70673, C166S); test: Inside-out patch clamp, Cantú mutant C166S Kir6.2 with SUR2A; type: cell-based; details: C166S Kir6.2 (homolog of Kir6.1 C176S)/SUR2A, outward current
T1 construct: expressed in transfected cells; host or cells: HEK293T
T1 sequence (P70673 whole entry C166S): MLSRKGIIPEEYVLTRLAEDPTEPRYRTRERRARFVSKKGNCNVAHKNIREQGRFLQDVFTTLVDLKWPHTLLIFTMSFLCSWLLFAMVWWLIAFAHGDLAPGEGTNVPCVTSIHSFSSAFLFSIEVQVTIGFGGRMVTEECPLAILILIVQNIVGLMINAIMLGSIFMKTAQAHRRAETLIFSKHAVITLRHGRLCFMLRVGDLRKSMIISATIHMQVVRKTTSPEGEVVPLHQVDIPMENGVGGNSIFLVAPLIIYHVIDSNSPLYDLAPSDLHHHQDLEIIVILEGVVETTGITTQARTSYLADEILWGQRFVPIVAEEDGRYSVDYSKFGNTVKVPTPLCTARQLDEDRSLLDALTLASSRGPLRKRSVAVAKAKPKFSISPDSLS
T1 sequence (Q63563 whole entry partner): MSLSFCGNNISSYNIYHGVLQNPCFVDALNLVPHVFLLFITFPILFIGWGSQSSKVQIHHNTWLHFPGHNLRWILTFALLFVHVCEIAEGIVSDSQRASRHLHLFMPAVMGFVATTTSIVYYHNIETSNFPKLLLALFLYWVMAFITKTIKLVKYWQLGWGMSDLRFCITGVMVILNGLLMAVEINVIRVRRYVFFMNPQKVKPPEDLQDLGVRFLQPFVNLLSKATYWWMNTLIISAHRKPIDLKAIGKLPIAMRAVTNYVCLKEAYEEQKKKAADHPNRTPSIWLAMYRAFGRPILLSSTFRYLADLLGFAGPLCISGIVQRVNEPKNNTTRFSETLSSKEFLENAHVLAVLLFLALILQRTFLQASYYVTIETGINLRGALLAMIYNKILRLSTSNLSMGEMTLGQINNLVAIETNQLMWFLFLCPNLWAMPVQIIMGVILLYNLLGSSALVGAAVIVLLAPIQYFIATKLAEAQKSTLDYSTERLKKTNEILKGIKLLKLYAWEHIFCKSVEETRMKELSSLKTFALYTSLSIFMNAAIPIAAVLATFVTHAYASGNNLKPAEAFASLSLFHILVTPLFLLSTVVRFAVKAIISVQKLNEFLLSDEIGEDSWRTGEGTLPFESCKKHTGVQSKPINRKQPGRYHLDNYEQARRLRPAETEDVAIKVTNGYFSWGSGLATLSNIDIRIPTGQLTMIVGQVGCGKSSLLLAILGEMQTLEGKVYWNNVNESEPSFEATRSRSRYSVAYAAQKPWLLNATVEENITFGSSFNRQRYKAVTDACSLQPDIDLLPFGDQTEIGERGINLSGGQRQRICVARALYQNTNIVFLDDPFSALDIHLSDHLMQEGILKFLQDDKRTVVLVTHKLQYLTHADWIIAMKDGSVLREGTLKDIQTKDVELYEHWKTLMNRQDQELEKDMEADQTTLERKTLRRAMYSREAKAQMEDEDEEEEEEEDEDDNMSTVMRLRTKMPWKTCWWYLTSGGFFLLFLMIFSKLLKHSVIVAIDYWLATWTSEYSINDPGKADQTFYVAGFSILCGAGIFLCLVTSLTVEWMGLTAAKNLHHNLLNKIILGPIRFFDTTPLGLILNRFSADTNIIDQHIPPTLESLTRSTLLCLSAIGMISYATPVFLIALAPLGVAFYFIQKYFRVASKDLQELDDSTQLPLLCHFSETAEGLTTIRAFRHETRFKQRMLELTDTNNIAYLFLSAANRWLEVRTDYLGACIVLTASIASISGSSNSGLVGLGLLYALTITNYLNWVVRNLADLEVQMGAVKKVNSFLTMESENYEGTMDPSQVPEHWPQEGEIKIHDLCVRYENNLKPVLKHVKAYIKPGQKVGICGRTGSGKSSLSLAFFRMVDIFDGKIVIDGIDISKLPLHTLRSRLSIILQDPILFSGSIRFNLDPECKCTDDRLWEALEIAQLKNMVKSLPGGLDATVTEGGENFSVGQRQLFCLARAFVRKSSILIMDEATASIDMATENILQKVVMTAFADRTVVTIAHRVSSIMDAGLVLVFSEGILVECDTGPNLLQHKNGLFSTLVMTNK
Procedure: (§1) Inside-out patch clamp electrophysiology was performed as described previously ([Harakalova et al., 2012]). In short, HEK293T cells were cultured on 10 mm glass coverslips and transfected with 0.16 μg of rat pCMV6-Kir6.2, 0.16 μg of rat pCMV6-SUR2A and 0.08 μg of pEGFP1 expression constructs. Measurements were performed using an AxoPatch 200B amplifier controlled by pClamp 9 software (Molecular Devices) at 22°C using a ramp protocol ranging from −100 to +100 mV in 5 s from a holding potential of −40 mV. The sampling rate was 50 kHz, filter frequency was 2 kHz. Bath solution contained 131 mM KCl, 1 mM EGTA, 7.2 mM K2HPO4, 2.8 mM KH2PO4, 1 mM MgCl2, and pH 7.20/KOH. The pipette solution contained 145 mM KCl, 1 mM CaCl2, 1 mM MgCl2, 5 mM HEPES, and pH 7.40/KOH. Pipette resistance was 1.5–3 MΩ. […] All measurements were performed within a timeframe of 8–10 min. Fractional block at −80 and +50 mV was determined by dividing current levels obtained with test compound containing solutions by current levels of control traces recorded in the absence of test compound. Statistics (unpaired Students t-tests (two tailed)) were performed using Kaleidagraph 4.0 software (Synergy Software, Reading, PA, United States).
(§2) Travoprost (MedChemExpress, Monmouth Junction, NJ, United States) was dissolved in DMSO at 10 mM. Test compounds were diluted in bath solution at the indicated concentrations before the start of measurements.

Kir6.2/SUR2A = target: T2, Kir6.2/SUR2A (Rattus norvegicus, UniProt P70673); test: Inside-out patch clamp on HEK293T excised membrane patches, WT Kir6.2/SUR2A; type: cell-based; details: for IC50: inside-out patch, HEK293T; for Hill coefficient (outward): outward current
T2 construct: expressed in transfected cells; host or cells: HEK293T
T2 sequence (P70673 whole entry): as the sequence (P70673 whole entry C166S) above, with S166C counted along it
T2 sequence (Q63563 whole entry partner): as the sequence (Q63563 whole entry partner) above
Procedure: as §1, §2

Kir6.2/SUR2A S1020P = target: T3, Kir6.2/SUR2A S1020P (Rattus norvegicus, UniProt P70673); test: Inside-out patch clamp, Cantú mutant S1020P SUR2A with Kir6.2; type: cell-based; details: S1020P SUR2A/Kir6.2, outward current
T3 construct: expressed in transfected cells; host or cells: HEK293T
T3 sequence (P70673 whole entry, stated change not applied): as the sequence (P70673 whole entry C166S) above, with S166C counted along it
T3 sequence (Q63563 whole entry S1016P partner): as the sequence (Q63563 whole entry partner) above, with S1016P counted along it
Procedure: as §1, §2

Kir1.1 = test system: Kir1.1; set-up: method as in Yu et al. (2012); details: ref Yu et al. (2012); cited from earlier work
[1] = set-up: method as in Cox et al., 2000; details: used to treat type II diabetes mellitus; ref Cox et al., 2000; cited from earlier work
[2] = test system: Kir6.2/SURx (pancreatic and heart) channels; set-up: method as in Yu et al., 2012; details: ref Yu et al., 2012; cited from earlier work
Kir2.1 = test system: Kir2.1; set-up: method as in Yu et al. (2012); details: ref Yu et al. (2012); cited from earlier work
vascular Kir6.1/SUR2B = test system: vascular Kir6.1/SUR2B; set-up: method as in Yu et al., 2011; details: ref Yu et al., 2011; cited from earlier work
Kir4.1 = test system: Kir4.1; set-up: method as in Yu et al. (2012); details: ref Yu et al. (2012); cited from earlier work
[3] = outward current component (+50 mV), mean ± SEM, read-out: IC50 outward

Compound	IC50 (Kir6.2 C166S/SUR2A) [µM]	IC50 (Kir6.2/SUR2A; [3]) [µM]	Hill coefficient (outward) (Kir6.2/SUR2A; Hill equation fit)	IC50 (Kir6.2/SUR2A S1020P) [µM]	sensitivity of channel to drug (Kir1.1)	plasma concentrations [1] [µM]	IC50 [2] [µM]	sensitivity of channel to drug (Kir2.1)	IC50 (vascular Kir6.1/SUR2B) [µM]	sensitivity of channel to drug (Kir4.1)	IC50 (Kir6.2/SUR2A; inward current component (-80 mV), read-out: IC50 inward) [µM]	Hill coefficient (inward) (Kir6.2/SUR2A; inward current, Hill equation fit)
CC(C)NCC(O)COc1ccc(CCOCC2CC2)cc1 (centres unmarked) [Betaxolol]	41.2 ± 2.89	22.1 ± 2.47	0.89	29.5 ± 3.78	–	–	–	–	–	–	–	–
CN(CCOc1ccc(CC2SC(=O)NC2=O)cc1)c1ccccn1 (centres unmarked) [RSG, 5-[[4-[2-[methyl(pyridin-2-yl)amino]ethoxy]phenyl]methyl]-1,3-thiazolidine-2,4-dione]	34.9 ± 2.34	26 ± 1.49	–	25.4 ± 4.24	insensitive	~3	45	insensitive	10	insensitive	–	–
CC(C)OC(=O)CCC/C=C\C[C@@H]1[C@@H](/C=C/[C@@H](O)COc2cccc(C(F)(F)F)c2)[C@H](O)C[C@@H]1O [Travoprost]	14.8 ± 2.16	2.46 ± 0.52	0.71	11 ± 1.28	–	–	–	–	–	–	2.3 ± 1.26	0.65
CC(NCCc1ccc(O)cc1)C(O)c1ccc(O)cc1 (centres unmarked) [Ritodrine]	10.4 ± 0.87	7.09 ± 0.45	0.86	6.77 ± 0.49	–	–	–	–	–	–	–	–
